Source: ChEMBL document CHEMBL1201862, “PubChem BioAssay data set” (2004)
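96-well plates; 48 h exposure; 5 concentrations. Endpoints by linear interpolation between flanking doses. Not reached: highest tested concentration assigned. The concentration for 50% growth inhibition is given as GI50.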 Calls of active or inactive are those of the source. Cut-off read from the data, not from the text of the source: active = GI50 up to about 1.1 µM and inactive = higher.

Key:
Experiment in all cases: NCI tumour cell line growth inhibition, 48 h
[1] = system: MCF7
[2] = system: SN12C
[3] = system: SW-620
[4] = system: NCI-H23
[5] = system: HT-29
[6] = system: UACC-62
[7] = system: A549
[8] = system: LXFL 529
[9] = system: A498
[10] = system: NCI-H460
[11] = system: SK-MEL-2
[12] = system: MOLT-4
[13] = system: HCT-116
[14] = system: U-251
[15] = system: M19-MEL
[16] = system: LOX IMVI
[17] = system: RPMI-8226

Structure (SMILES)	GI50 [1]	GI50 [2]	GI50 [3]	GI50 [4]	GI50 [5]	GI50 [6]	GI50 [7]	GI50 [8]	GI50 [9]	GI50 [10]	GI50 [11]	GI50 [12]	GI50 [13]	GI50 [14]	GI50 [15]	GI50 [16]	GI50 [17]
CN(C)CC1CC/C(=C\c2ccc(Cl)cc2)C1=O (centres undefined)	1.87 µM (inactive)	7.67 µM (inactive)	2.61 µM (inactive)	8.13 µM (inactive)	5.71 µM (inactive)	7.5 µM (inactive)	20.4 µM (inactive)	1.99 µM (inactive)	13.5 µM (inactive)	17.4 µM (inactive)	12 µM (inactive)	0.561 µM (active)	3.31 µM (inactive)	7 µM (inactive)	3.54 µM (inactive)	2.4 µM (inactive)	0.441 µM (active)
O=C(NCO)NCOCn1c(=O)n(CO)c(=O)n(CO)c1=O	–	> 60.7 µM (inactive)	21.3 µM (inactive)	19.8 µM (inactive)	32.6 µM (inactive)	19.1 µM (inactive)	66.7 µM (inactive)	20 µM (inactive)	> 100 µM (inactive)	33.1 µM (inactive)	17.9 µM (inactive)	23.4 µM (inactive)	31.6 µM (inactive)	> 60.8 µM (inactive)	32.4 µM (inactive)	19 µM (inactive)	25.4 µM (inactive)
CCSc1nnc(-c2ccccc2)nc1Cc1ccc(OC)cc1	–	> 100 µM (inactive)	> 100 µM (inactive)	63.4 µM (inactive)	> 100 µM (inactive)	> 100 µM (inactive)	42.2 µM (inactive)	50.8 µM (inactive)	77.6 µM (inactive)	46.5 µM (inactive)	87.1 µM (inactive)	49.2 µM (inactive)	38.5 µM (inactive)	79.6 µM (inactive)	> 100 µM (inactive)	47.9 µM (inactive)	81.8 µM (inactive)
O=c1[nH]c(S)nc2c1sc(=S)n2-c1ccccc1	–	> 100 µM (inactive)	> 100 µM (inactive)	> 100 µM (inactive)	> 100 µM (inactive)	> 100 µM (inactive)	> 100 µM (inactive)	> 100 µM (inactive)	> 100 µM (inactive)	> 100 µM (inactive)	> 100 µM (inactive)	> 100 µM (inactive)	> 100 µM (inactive)	> 100 µM (inactive)	> 100 µM (inactive)	> 100 µM (inactive)	> 100 µM (inactive)
O=C1C(c2ccccc2)=[N+]([O-])c2ccc(Cl)cc21	–	24.2 µM (inactive)	49.2 µM (inactive)	31.6 µM (inactive)	22 µM (inactive)	17.5 µM (inactive)	32.1 µM (inactive)	13.6 µM (inactive)	> 100 µM (inactive)	42.4 µM (inactive)	> 100 µM (inactive)	23.6 µM (inactive)	15.8 µM (inactive)	25.9 µM (inactive)	20.1 µM (inactive)	18.4 µM (inactive)	21.2 µM (inactive)
CC12CC/C(=N/NC(N)=O)C3C1CCCC32	–	> 100 µM (inactive)	> 100 µM (inactive)	> 100 µM (inactive)	> 100 µM (inactive)	> 100 µM (inactive)	> 100 µM (inactive)	> 100 µM (inactive)	> 100 µM (inactive)	> 100 µM (inactive)	> 100 µM (inactive)	> 100 µM (inactive)	> 100 µM (inactive)	> 100 µM (inactive)	> 100 µM (inactive)	> 100 µM (inactive)	> 100 µM (inactive)
CCOC(=O)c1csc(CCCCCCc2nc(C(=O)OCC)cs2)n1	–	> 82.6 µM (inactive)	> 41.7 µM (inactive)	43.2 µM (inactive)	> 70 µM (inactive)	> 83.8 µM (inactive)	> 45.6 µM (inactive)	56.1 µM (inactive)	> 100 µM (inactive)	29.7 µM (inactive)	97.5 µM (inactive)	> 75 µM (inactive)	35.9 µM (inactive)	24 µM (inactive)	21.9 µM (inactive)	32.4 µM (inactive)	> 48.8 µM (inactive)
C1CN(P2(N3CC3)=NP(N3CC3)(N3CC3)=NP(N3CC3)(N3CC3)=N2)CCO1 (centres undefined) [FOTRETAMINE]	–	> 68.2 µM (inactive)	> 100 µM (inactive)	27.4 µM (inactive)	> 100 µM (inactive)	> 56.6 µM (inactive)	> 100 µM (inactive)	> 100 µM (inactive)	> 100 µM (inactive)	4.57 µM (inactive)	> 100 µM (inactive)	8.2 µM (inactive)	> 100 µM (inactive)	71.6 µM (inactive)	> 100 µM (inactive)	72.4 µM (inactive)	> 95.7 µM (inactive)
